According to ChEMBL document CHEMBL3580624 (J Nat Prod, 2015):
The source made the active and inactive calls. No cut-off for these calls is given here.

Legend:
Prolyl endopeptidase = target: T1, Prolyl endopeptidase (Homo sapiens, UniProt P48147); assay: Inhibition of human recombinant POP pre-incubated for 15 mins before Z-Gly-Pro-AMC substrate addition and further incubated for 1 hr by fluorimetry
T1 sequence (P48147 whole entry): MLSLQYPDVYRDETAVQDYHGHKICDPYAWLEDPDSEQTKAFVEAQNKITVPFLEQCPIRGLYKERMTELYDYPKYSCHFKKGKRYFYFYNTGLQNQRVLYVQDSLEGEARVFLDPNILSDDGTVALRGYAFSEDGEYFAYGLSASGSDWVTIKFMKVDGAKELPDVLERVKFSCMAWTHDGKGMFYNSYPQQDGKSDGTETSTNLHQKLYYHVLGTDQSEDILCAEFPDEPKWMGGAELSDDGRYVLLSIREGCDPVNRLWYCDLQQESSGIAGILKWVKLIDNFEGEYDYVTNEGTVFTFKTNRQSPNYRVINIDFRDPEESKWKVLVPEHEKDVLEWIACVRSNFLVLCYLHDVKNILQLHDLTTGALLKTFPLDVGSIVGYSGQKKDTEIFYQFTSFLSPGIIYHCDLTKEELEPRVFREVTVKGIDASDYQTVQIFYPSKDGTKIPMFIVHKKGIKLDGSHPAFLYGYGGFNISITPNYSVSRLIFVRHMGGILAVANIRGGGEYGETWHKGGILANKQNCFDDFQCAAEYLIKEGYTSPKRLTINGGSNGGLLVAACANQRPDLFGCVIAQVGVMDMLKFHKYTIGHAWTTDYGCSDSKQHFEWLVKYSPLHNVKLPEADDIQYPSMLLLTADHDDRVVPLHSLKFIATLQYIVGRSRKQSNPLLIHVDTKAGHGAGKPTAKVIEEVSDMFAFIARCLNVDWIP

[1] = target: Chymotrypsinogen A (Bos taurus) (UniProt P00766); assay: Inhibition of bovine alpha-chymotrypsin at 75 uM pre-incubated for 15 mins before Ala-Ala-Phe-AMC substrate addition and further incubated for 1 hr by fluorimetry
Bos taurus = organism: Bos taurus; assay: Inhibition of bovine trypsin at 25 uM pre-incubated for 15 mins before Bz-Arg-AMC-HCl substrate addition and further incubated for 1 hr by fluorimetry

SMILES: CC[C@H](C)[C@@H]1NC(=O)[C@@H]2CCCN2C(=O)[C@H](CC(C)C)NC(=O)CNC(=O)[C@H](CC(N)=O)NC(=O)[C@H](CCCNC(=N)N)NC(=O)[C@H]([C@@H](C)O)NC(=O)[C@@H]2CSSC[C@@H]3NC(=O)[C@H]([C@@H](C)O)NC(=O)CNC(=O)CNC(=O)[C@H](C(C)C)NC(=O)[C@@H]4CSSC[C@H](NC(=O)[C@H]([C@@H](C)O)NC(=O)[C@H](CSSC[C@H](NC1=O)C(=O)NCC(=O)N[C@@H](CCC(=O)O)C(=O)N[C@@H](CO)C(=O)N4)NC(=O)CNC(=O)[C@@H]1CCCN1C(=O)[C@H]([C@@H](C)O)NC(=O)[C@H](CC(N)=O)NC3=O)C(=O)N[C@@H]([C@@H](C)O)C(=O)N[C@@H](Cc1c[nH]c3ccccc13)C(=O)N1CCC[C@H]1C(=O)N[C@@H](C(C)C)C(=O)N2 (stereo in doubt; form 2) [listing 1 of 2 here]
- IC50 (Prolyl endopeptidase): 8.6 µM

SMILES: CC[C@H](C)[C@@H]1NC(=O)[C@@H]2CCCN2C(=O)[C@H](CC(C)C)NC(=O)CNC(=O)[C@H](CC(N)=O)NC(=O)[C@H](CCCNC(=N)N)NC(=O)[C@H]([C@@H](C)O)NC(=O)[C@@H]2CSSC[C@@H]3NC(=O)[C@H]([C@@H](C)O)NC(=O)CNC(=O)CNC(=O)[C@H](C(C)C)NC(=O)[C@@H]4CSSC[C@H](NC(=O)[C@H]([C@@H](C)O)NC(=O)[C@H](CSSC[C@H](NC1=O)C(=O)NCC(=O)N[C@@H](CCC(=O)O)C(=O)N[C@@H](CO)C(=O)N4)NC(=O)CNC(=O)[C@@H]1CCCN1C(=O)[C@H]([C@@H](C)O)NC(=O)[C@H](CC(N)=O)NC3=O)C(=O)N[C@@H]([C@@H](C)O)C(=O)N[C@@H](Cc1c[nH]c3ccccc13)C(=O)N1CCC[C@H]1C(=O)N[C@@H](C(C)C)C(=O)N2 (stereo in doubt; form 1)
- IC50 (Prolyl endopeptidase): 9.57 µM

SMILES: CC[C@H](C)[C@@H]1NC(=O)[C@@H]2CCCN2C(=O)[C@H](CC(C)C)NC(=O)CNC(=O)[C@H](CC(N)=O)NC(=O)[C@H](CCCNC(=N)N)NC(=O)[C@H]([C@@H](C)O)NC(=O)[C@@H]2CSSC[C@@H]3NC(=O)[C@H]([C@@H](C)O)NC(=O)CNC(=O)CNC(=O)[C@H](C(C)C)NC(=O)[C@@H]4CSSC[C@H](NC(=O)[C@H]([C@@H](C)O)NC(=O)[C@H](CSSC[C@H](NC1=O)C(=O)NCC(=O)N[C@@H](CCC(=O)O)C(=O)N[C@@H](CO)C(=O)N4)NC(=O)CNC(=O)[C@@H]1CCCN1C(=O)[C@H]([C@@H](C)O)NC(=O)[C@H](CC(N)=O)NC3=O)C(=O)N[C@@H]([C@@H](C)O)C(=O)N[C@@H](Cc1c[nH]c3ccccc13)C(=O)N1CCC[C@H]1C(=O)N[C@@H](C(C)C)C(=O)N2 (stereo in doubt; form 2) [listing 2 of 2 here]
- inhibition [1]: inactive
- inhibition (Bos taurus): inactive
